Format in all cases: cell-based, human
The subject of one assay is NCI-H358 cells. In words: Cell viability assay, NCI-H358. Conditions: Homo sapiens, NCI-H358, 72 hours, Cell Counting Kit-8, read-out: G12C IC50. Here is the method: (§1) The purpose of this cellular assay was to determine the effects of test compounds on the proliferation of human cancer cell lines NCI-H358 (ATCC-CRL5807) cells, AGS (ATCC-CRL-1739) cells, SW620 (ATCC-CCL-227) over a 3-day treatment period by quantifying the amount of NADPH present at endpoint using Cell Counting Kit-8. Cells were seeded at 5,000 cells/well (NCI-H358), 2,000 cells/well (AGS) 2,000 cells/well (SW620) in 96-well assay plates (Corning-3699) and incubated overnight. On the day of the assay, diluted compounds were then added in a final concentration of 0.5% DMSO. After 72 hours incubation, a tenth of the volume of cell counting kit 8(Dnjindo-CK04) was added into each well. Read the signal (OD450 minus OD650) using EnVision after 2 hours incubation. IC50 was determined by fitting a 4-parameter sigmoidal concentration response model.

The subject of assay [1] is KRAS G12C in NCI-H358 cells. In words: pERK inhibition assay, NCI-H358. Conditions: Homo sapiens, 4 hours incubation. Here is the method: (§2) This assay is to measure the ability of test compounds in inhibiting the phosphorylation of ERK, the downstream signaling of KRAS G12C in NCI-H358 cells, KRAS G12D in AGS cells, and KRAS G12V in SW620. NCI-H358 (ATCC-CRL5807) cells, AGS (ATCC-CRL-1739) cells, SW620 (ATCC-CCL-227) cells were all grown and maintained using RPMI-1640 medium (Thermo Fisher Scientific) with 10% fetal bovine serum and 1% penicillin/streptomycin. On the day prior to compound addition, cells were plated in tissue culture-treated 96 well plates (Corning-3699) at a density of 30,000 cell/well, 20,000 cell/well, 30,000 cell/well for NCI-H358, AGS and SW620 respectively, and allowed for attachment overnight. Diluted compounds were then added in a final concentration of 0.5% DMSO. After 4 hours of incubation, the medium was removed, 100 μL of 4% formaldehyde was added, and the assay plates were incubated at room temperature for 20 minutes. The plates were then washed once with phosphate buffered saline (PBS), and permeabilized with 100 μL of chilled methanol for 10 minutes. Non-specific antibody binding to the plates was blocked using 50 μL 1×BSA blocking buffer (Thermo-37520, 10-fold dilution by Phosphate-Buffered Saline Tween (PBST) for at least 1 hour at room temperature. The amount of phosphor-ERK was determined using an antibody specific for phosphorylated form of ERK. Primary antibody (pERK, CST-4370, Cell Signaling Technology) was diluted 1:300 in blocking buffer, with 50 μL aliquoted to each well, and incubated overnight at 4° C. Cells were washed five times for 5 minutes with PBST. Secondary antibody (HRP-linked anti-rabbit IgG, CST-7074, Cell Signaling Technology) was diluted 1:1000 in blocking buffer, and 50 μL was added to each well and incubated 1-2 hours at room temperature. Cells were washed 5 times for 5 minutes with PBST, 100 μL TMB ELISA substrate (abcam-ab171523) were added and gently shake for 20 minutes. 50 μL stop solution (abcam-ab171529) were added, and then read the signal (OD450) by EnVision. IC50 was determined by fitting a 4-parameter sigmoidal concentration response model.

The next assay concerns KRAS G12D in AGS cells. Kind of assay: pERK inhibition assay, AGS. Particulars: Homo sapiens, 4 hours incubation. Here is the method:
as §2

A further assay relates to AGS cells. In words: Cell viability assay, AGS. Conditions: Homo sapiens, 72 hours, Cell Counting Kit-8, read-out: G12D IC50. Here is the method:
as §1

The subject of the next assay is SW620 cells. Kind of assay: Cell viability assay, SW620. Particulars: Homo sapiens, SW-620, SW620, 72 hours, Cell Counting Kit-8, read-out: G12V IC50. On the procedure:
as §1
Background: Tetrazolium assays rely on reduction of a dye to a coloured formazan, in cell work by metabolically active cells.

A further assay has as its system KRAS G12V in SW620. In words: pERK inhibition assay, SW620. Conditions: Homo sapiens, SW-620, SW620 cells, 4 hours incubation. On the procedure:
as §2

With `CCn1c(-c2cccnc2[C@H](C)OC)c2c3cc(ccc31)-c1cc(O)cc(c1)C[C@H](NC(=O)[C@H](C(C)C)N(C)C(=O)[C@H]1CCN(C(=O)[C@@H](F)Cl)C1)C(=O)N1CCC[C@H](N1)C(=O)OCC(C)(C)C2` (atropisomer, axis not shown; (M)) [Example 1, (3S)-1-[(2S)-2-chloro-2-fluoro-acetyl]-N-[(1S)-1-[[(8S,14S)-22-ethyl-4-hydroxy-(21M)-21-[2-[(1S)-1-methoxyethyl]-3-pyridyl]-18,18-dimethyl-9,15-dioxo-16-oxa-10,22,28-triazapentacyclo[18.5.2.12,6.110,14.023,27]nonacosa-1(26),2,4,6 (29),20,23 (27),24-heptaen-8-yl]carbamoyl]-2-methyl-propyl]-N-methyl-pyrrolidine-3-carboxamide], the half-inhibitory concentration (IC50) with NCI-H358 cells is 4 nM; in assay [1], 8 nM; in the assay on KRAS G12D in AGS cells it was 469 nM.
In the case of `C#CCN1CC[C@H](C(=O)N(C)[C@H](C(=O)N[C@H]2Cc3cc(O)cc(c3)-c3ccc4c(c3)c(c(-c3cccnc3[C@H](C)OC)n4CC)CC(C)(C)COC(=O)[C@@H]3CCCN(N3)C2=O)C(C)C)C1` (atropisomer, axis not shown; (M)) [Example 6, (3S)-N-[(1S)-1-[[(8S,14S)-22-ethyl-4-hydroxy-(21M)-21-[2-[(1S)-1-methoxyethyl]-3-pyridyl]-18,18-dimethyl-9,15-dioxo-16-oxa-10,22,28-triazapentacyclo[18.5.2.12,6.110,14.023,27]nonacosa-1(26),2,4,6(29),20,23(27),24-heptaen-8-yl]carbamoyl]-2-methyl-propyl]-N-methyl-1-prop-2-ynyl-pyrrolidine-3-carboxamide], the 50% inhibitory concentration (IC50) in the assay with NCI-H358 cells worked out at 797 nM.
For the compound `CCn1c(-c2cccnc2[C@H](C)OC)c2c3cc(ccc31)-c1cc(O)cc(c1)C[C@H](NC(=O)[C@H](C(C)C)N(C)C(=O)[C@H]1CCN(CC#N)C1)C(=O)N1CCC[C@H](N1)C(=O)OCC(C)(C)C2` (atropisomer, axis not shown; (M)) [Example 7, (3S)-1-(cyanomethyl)-N-[(1S)-1-[[(8S,14S)-22-ethyl-4-hydroxy-(21M)-21-[2-[(1S)-1-methoxyethyl]-3-pyridyl]-18,18-dimethyl-9,15-dioxo-16-oxa-10,22,28-triazapentacyclo[18.5.2.12,6.110,14.023,27]nonacosa-1(26),2,4,6(29),20,23(27),24-heptaen-8-yl]carbamoyl]-2-methyl-propyl]-N-methyl-pyrrolidine-3-carboxamide], the half-inhibitory concentration (IC50) in assay [1] amounted to 513 nM; in the assay with KRAS G12D in AGS cells, 236 nM.
Consider `CCn1c(-c2cccnc2[C@H](C)OC)c2c3cc(ccc31)-c1csc(n1)C[C@H](NC(=O)[C@H](C(C)C)N(C)C(=O)[C@H]1CCN(C(=O)[C@H](F)Cl)C1)C(=O)N1CCC[C@H](N1)C(=O)OCC(C)(C)C2` (atropisomer, axis not shown; (M)) [Example 17, (3S)-1-[(2R)-2-chloro-2-fluoro-acetyl]-N-[(1S)-1-[[(7S,13S)-21-ethyl-(20M)-20-[2-[(1S)-1-methoxyethyl]-3-pyridyl]-17,17-dimethyl-8,14-dioxo-15-oxa-4-thia-9,21,27,28-tetrazapentacyclo[17.5.2.12,5.19,13.022,26]octacosa-1(25),2,5(28),19,22(26),23-hexaen-7-yl]carbamoyl]-2-methyl-propyl]-N-methyl-pyrrolidine-3-carboxamide], for which the half-inhibitory concentration (IC50) in the assay on NCI-H358 cells turned out to be 6 nM; in assay [1], 23 nM; in the assay with AGS cells it was 1130 nM; in the assay with SW620 cells, 449 nM; in the assay on KRAS G12V in SW620, 124 nM.
As to `C#CC1CC(C(=O)N(C)[C@H](C(=O)N[C@H]2Cc3cc(O)cc(c3)-c3ccc4c(c3)c(c(-c3cccnc3[C@H](C)OC)n4CC)CC(C)(C)COC(=O)[C@@H]3CCCN(N3)C2=O)C(C)C)C1` (stereo partly drawn) [Example 4, N-[(1S)-1-[[(8S,14S)-22-ethyl-4-hydroxy-(21M)-21-[2-[(1S)-1-methoxyethyl]-3-pyridyl]-18,18-dimethyl-9,15-dioxo-16-oxa-10,22,28-triazapentacyclo[18.5.2.12,6.110,14.023,27]nonacosa-1(26),2,4,6(29),20,23(27),24-heptaen-8-yl]carbamoyl]-2-methyl-propyl]-3-ethynyl-N-methyl-cyclobutanecarboxamide], the IC50 in the assay on NCI-H358 cells came to 30 nM; in assay [1], 42 nM; with KRAS G12D in AGS cells, 297 nM; with SW620 cells it was 162 nM; with KRAS G12V in SW620, 51 nM.
For `CCn1c(-c2cccnc2[C@H](C)OC)c2c3cc(ccc31)-c1cc(O)cc(c1)C[C@H](NC(=O)[C@H](C(C)C)N(C)C(=O)C1CC(C(=O)C=S(C)(C)=O)C1)C(=O)N1CCC[C@H](N1)C(=O)OCC(C)(C)C2` (stereo partly drawn) [Example 8, 3-[2-[dimethyl(oxo)-λ^6-sulfanylidene]acetyl]-N-[(1S)-1-[[(8S,14S)-22-ethyl-4-hydroxy-(21M)-21-[2-[(1S)-1-methoxyethyl]-3-pyridyl]-18,18-dimethyl-9,15-dioxo-16-oxa-10,22,28-triazapentacyclo[18.5.2.12,6.110,14.023,27]nonacosa-1(26),2,4,6(29),20,23(27),24-heptaen-8-yl]carbamoyl]-2-methyl-propyl]-N-methyl-cyclobutanecarboxamide], half-maximal inhibition in assay [1] (IC50) required 436 nM.
With `CCn1c(-c2cccnc2[C@H](C)OC)c2c3cc(ccc31)-c1cc(O)cc(c1)C[C@H](NC(=O)[C@H](C(C)C)N(C)C(=O)[C@H]1CCN(C(=O)C34CC3C4)C1)C(=O)N1CCC[C@H](N1)C(=O)OCC(C)(C)C2` (stereo partly drawn) [Example 11, (3S)-1-(bicyclo[1.1.0]butane-1-carbonyl)-N-[(1S)-1-[[(8S,14S)-22-ethyl-4-hydroxy-(21M)-21-[2-[(1S)-1-methoxyethyl]-3-pyridyl]-18,18-dimethyl-9,15-dioxo-16-oxa-10,22,28-triazapentacyclo[18.5.2.12,6.110,14.023,27]nonacosa-1(26),2,4,6(29),20,23(27),24-heptaen-8-yl]carbamoyl]-2-methyl-propyl]-N-methyl-pyrrolidine-3-carboxamide], the IC50 in the assay on NCI-H358 cells came out at 118 nM; in assay [1], 83 nM; with KRAS G12D in AGS cells, 164 nM; in the assay with SW620 cells, 161 nM; with KRAS G12V in SW620 it was 380 nM.
With `CCn1c(-c2cccnc2[C@H](C)OC)c2c3cc(ccc31)-c1cc(O)cc(c1)C[C@H](NC(=O)[C@H](C(C)C)N(C)C(=O)C1CC(C#Cc3ccccn3)C1)C(=O)N1CCC[C@H](N1)C(=O)OCC(C)(C)C2` (stereo partly drawn) [Example 13, N-[(1S)-1-[[(8S,14S)-22-ethyl-4-hydroxy-(21M)-21-[2-[(1S)-1-methoxyethyl]-3-pyridyl]-18,18-dimethyl-9,15-dioxo-16-oxa-10,22,28-triazapentacyclo[18.5.2.12,6.110,14.023,27]nonacosa-1(26),2,4,6(29),20,23(27),24-heptaen-8-yl]carbamoyl]-2-methyl-propyl]-N-methyl-3-[2-(2-pyridyl)ethynyl]cyclobutanecarboxamide], the 50% inhibitory concentration (IC50) turned out to be 66 nM in the assay with NCI-H358 cells, 189 nM in assay [1], 328 nM with SW620 cells and 274 nM with KRAS G12V in SW620.

By IC50 is commonly meant the concentration that inhibits the measured activity by half.

(Values after patent US20250163072A1, “MACROCYCLIC COMPOUNDS FOR THE TREATMENT OF CANCER” (Hoffmann-La Roche Inc., priority 2021, published 2025).)
